# Reference: US11453660B2, “Androgen receptor and glucocorticoid receptor modulators” (ONCOSTELLAE, S.L., priority 2017, dated 2022)
# Target: T1, Rat Androgen Receptor (Rattus norvegicus, UniProt P15207)
# T1 construct: purchased Life Technologies A15880
# T1 sequence (P15207 646-902 limits assumed): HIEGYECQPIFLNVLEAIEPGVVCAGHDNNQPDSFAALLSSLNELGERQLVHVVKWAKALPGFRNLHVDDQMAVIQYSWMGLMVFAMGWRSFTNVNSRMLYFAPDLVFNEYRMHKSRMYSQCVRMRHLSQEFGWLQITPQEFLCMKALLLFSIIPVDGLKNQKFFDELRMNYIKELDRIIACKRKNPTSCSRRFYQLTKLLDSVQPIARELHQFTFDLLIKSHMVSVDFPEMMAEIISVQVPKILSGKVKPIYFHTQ
# Assay: Rat Androgen Receptor Binding (polarscreen AR competitor assay, fluorescence polarization)
# Settings: displacement of Fluormone AL Green, 4 hours at RT, read-out: AR rat-fluorimetric
# Procedure: Pharmacological Activity Rat Androgen Receptor Binding
# The assay was carried out following the instructions of polarscreen AR competitor assay green kit (Life Technologies, Cat #.: A15880). Briefly, the test is based on measuring the changes of fluorescence polarization shown by the Fluormone AL Green. Thus, when the Fluormone is bound to the receptor, a fluorescence polarization is observed that diminishes when a ligand competes for the receptor binding site and the Fluormone gets displaced.
# The inhibition values for each of the compounds are measured in duplicate at 1 and 10 μM and the plate is incubated for 4 hours at RT. Fluorescence polarization is the measured in a Tecan Infinite M1000 Pro reader (λexc=485 nm, λem=535 nm). In order to obtain a dose-response curve and calculate the potency of inhibition (expressed as IC50) for AR, a series of 1:10 dilutions in test in 1× buffer from 10 μM to 0.1 nM for each compound was carried out.
row,Structure (SMILES),IC50
1,"COCCC1=C(C(=O)OC)C(c2csc3ccccc23)C(C(C)=O)=C(C)N1 (stereo not shown) [Example C7, Methyl 5-acetyl-4-(benzo[b]thiophen-3-yl)-2-(2-methoxyethyl)-6-methyl-1,4-dihydropyridine-3-carboxylate]",100 to 1000 nM
2,"COCC1=C(C(C)=O)C(c2csc3ccccc23)C(C(=O)OC)=C(C)N1 (stereo not shown) [Example C19, Methyl 5-acetyl-4-(benzo[b]thiophen-3-yl)-6-(methoxymethyl)-2-methyl-1,4-dihydropyridine-3-carboxylate]",≥ 1000 nM
3,"CC(=O)C1=C(C)NC(C)=C(C(=O)OCC2CC2)C1c1csc2ccc(F)cc12 (stereo not shown) [Example C21, Cyclopropylmethyl 5-acetyl-4-(5-fluorobenzo[b]thiophen-3-yl)-2,6-dimethyl-1,4-dihydropyridine-3-carboxylate]",< 100 nM
4,"CC(=O)C1=C(C)NC(C)=C(C(=O)OCC2CCCC2)C1c1csc2ccccc12 (stereo not shown) [Example C23, Cyclopentylmethyl 5-acetyl-4-(benzo[b]thiophen-3-yl)-2,6-dimethyl-1,4-dihydropyridine-3-carboxylate]",< 100 nM
5,"CC(=O)C1=C(C)NC(C)=C(C(=O)OC2CCCC2)C1c1csc2ccccc12 (stereo not shown) [Example C26, Cyclopentyl 5-acetyl-4-(benzo[b]thiophen-3-yl)-2,6-dimethyl-1,4-dihydropyridine-3-carboxylate]",< 100 nM
6,"CC(=O)C1=C(C)NC(C)=C(C(=O)OC2CCC(C)(C)CC2)C1c1csc2ccccc12 (stereo not shown) [Example C27, 4,4-dimethylcyclohexyl 5-acetyl-4-(benzo[b]thiophen-3-yl)-2,6-dimethyl-1,4-dihydropyridine-3-carboxylate]",≥ 1000 nM
7,"CC(=O)C1=C(C)NC(C)=C(C(=O)OC2CCC2)C1c1csc2ccccc12 (stereo not shown) [Example C28, Cyclobutyl 5-acetyl-4-(benzo[b]thiophen-3-yl)-2,6-dimethyl-1,4-dihydropyridine-3-carboxylate]",100 to 1000 nM
8,"COC(=O)C1=C(C(F)(F)F)NC(C)=C(C(C)=O)C1c1csc2ccc(F)cc12 (stereo not shown) [Example C29, Methyl 5-acetyl-4-(5-fluorobenzo[b]thiophen-3-yl)-6-methyl-2-(trifluoromethyl)-1,4-dihydropyridine-3-carboxylate]",< 100 nM
9,"COC(=O)C1=C(N)NC(C)=C(C(=O)C2CC2)C1c1csc2ccccc12 (stereo not shown) [Example D2, Methyl 2-amino-4-(benzo[b]thiophen-3-yl)-5-(cyclopropanecarbonyl)-6-methyl-1,4-dihydropyridine-3-carboxylate]",≥ 1000 nM
10,"COC(=O)C1=C(N)NC(C)=C(C(C)=O)C1c1csc2ccc(F)cc12 (stereo not shown) [Example D3, Methyl 5-acetyl-2-amino-4-(5-fluorobenzo[b]thiophen-3-yl)-6-methyl-1,4-dihydropyridine-3-carboxylate]",< 100 nM
11,"CC(=O)C1=C(C)NC(C)=C(C(C)=O)C1c1csc2cc(O)ccc12 [Example G2, 1,1′-(4-(6-hydroxybenzo[b]thiophen-3-yl)-2,6-dimethyl-1,4-dihydropyridine-3,5-diyl)bis(ethan-1-one)]",≥ 1000 nM
12,"COc1ccc2c(C3C(C(C)=O)=C(C)NC(C)=C3C(C)=O)csc2c1 [Example G3, 1,1′-(4-(6-Methoxybenzo[b]thiophen-3-yl)-2,6-dimethyl-1,4-dihydropyridine-3,5-diyl)diethanone]",≥ 1000 nM
13,"CC(=O)C1=C(C2CC2)NC(C2CC2)=C(C(C)=O)C1c1csc2ccccc12 [Example G4, 1,1′-(4-(Benzo[b]thiophen-3-yl)-2,6-dicyclopropyl-1,4-dihydropyridine-3,5-diyl)diethanone]",≥ 1000 nM

# Second part, the compound after the results:
row,IC50,Structure (SMILES)
1,< 100 nM,"CC(=O)C1=C(C)NC(C)=C(C(C)=O)C1c1csc2ccc(Cl)cc12 [Example H1, 1,1′-(4-(5-chlorobenzo[b]thiophen-3-yl)-2,6-dimethyl-1,4-dihydropyridine-3,5-diyl)diethanone]"
2,< 100 nM,"CC(=O)C1=C(C)NC(C)=C(C(C)=O)C1c1csc2ccc(Br)cc12 [Example H2, 1,1′-(4-(5-bromobenzo[b]thiophen-3-yl)-2,6-dimethyl-1,4-dihydropyridine-3,5-diyl)diethanone]"
3,≥ 1000 nM,"CC(=O)C1=C(C)NC(C)=C(C(C)=O)C1c1csc2ccc(F)cc12 [Example H3, 1,1′-(4-(5-fluorobenzo[b]thiophen-3-yl)-2,6-dimethyl-1,4-dihydropyridine-3,5-diyl)bis(ethan-1-one)]"
4,≥ 1000 nM,"CC(=O)C1=C(C)NC(C)=C(C(C)=O)C1c1csc2ccc(N3CCOCC3)cc12 [Example H4, 1,1′-(2,6-dimethyl-4-(5-morpholinobenzo[b]thiophen-3-yl)-1,4-dihydropyridine-3,5-diyl)bis(ethan-1-one)]"
5,≥ 1000 nM,"CC(=O)C1=C(C)NC(C)=C(C(C)=O)C1c1csc2ccc(N3CCN(C)CC3)cc12 [Example H5, 1,1′-(2,6-dimethyl-4-(5-(4-methylpiperazin-1-yl)benzo[b]thiophen-3-yl)-1,4-dihydropyridine-3,5-diyl)bis(ethan-1-one)]"
6,≥ 1000 nM,"CC(=O)C1=C(C)NC(C)=C(C(C)=O)C1c1csc2ccc(NCc3ccccc3)cc12 [Example H6, 1,1′-(4-(5-(benzylamino)benzo[b]thiophen-3-yl)-2,6-dimethyl-1,4-dihydropyridine-3,5-diyl)bis(ethan-1-one)]"
7,≥ 1000 nM,"CC(=O)C1=C(C)NC(C)=C(C(C)=O)C1c1csc2ccc(C#N)cc12 [Example H7, 3-(3,5-diacetyl-2,6-dimethyl-1,4-dihydropyridin-4-yl)benzo[b]thiophene-5-carbonitrile]"
8,≥ 1000 nM,"CC(=O)C1=C(C)NC(C)=C(C(C)=O)C1c1csc2ccc(C(=O)O)cc12 [Example H8, 3-(3,5-diacetyl-2,6-dimethyl-1,4-dihydropyridin-4-yl)benzo[b]thiophene-5-carboxylic acid]"
9,≥ 1000 nM,"CC(=O)C1=C(C)NC(C)=C(C(C)=O)C1c1csc2ccc(C(=O)NC3CC3)cc12 [Example H9, N-cyclopropyl-3-(3,5-diacetyl-2,6-dimethyl-1,4-dihydropyridin-4-yl)benzo[b]thiophene-5-carboxamide]"
10,≥ 1000 nM,"CC(=O)C1=C(C)NC(C)=C(C(C)=O)C1c1csc2ccc(C(=O)NCC3CC3)cc12 [Example H10, N-(cyclopropylmethyl)-3-(3,5-diacetyl-2,6-dimethyl-1,4-dihydropyridin-4-yl)benzo[b]thiophene-5-carboxamide]"
11,≥ 1000 nM,"CC(=O)C1=C(C)NC(C)=C(C(C)=O)C1c1csc2ccc(C(=O)N3CCN(C)CC3)cc12 [Example H11, 1,1′-(2,6-Dimethyl-4-(5-(4-methylpiperazine-1-carbonyl)benzo[b]thiophen-3-yl)-1,4-dihydropyridine-3,5-diyl)bis(ethan-1-one)]"
12,≥ 1000 nM,"CC(=O)C1=C(C)NC(C)=C(C(C)=O)C1c1csc2ccc(C(=O)N3CCOCC3)cc12 [Example H12, 1,1′-(2,6-Dimethyl-4-(5-(morpholine-4-carbonyl)benzo[b]thiophen-3-yl)-1,4-dihydropyridine-3,5-diyl)bis(ethan-1-one)]"
13,≥ 1000 nM,"CC(=O)C1=C(C)NC(C)=C(C(C)=O)C1c1csc2ccncc12 [Example H13, 1,1′-(2,6-Dimethyl-4-(thieno[3,2-c]pyridin-3-yl)-1,4-dihydropyridine-3,5-diyl)bis(ethan-1-one)]"
14,≥ 1000 nM,"CC(=O)C1=C(C)NC(C)=C(C(C)=O)C1c1csc2cnccc12 [Example H14, 1,1′-(2,6-Dimethyl-4-(thieno[2,3-c]pyridin-3-yl)-1,4-dihydropyridine-3,5-diyl)bis(ethan-1-one)]"
15,< 100 nM,"COC(=O)C1=C(C2CC2)NC(C)=C(C(C)=O)C1c1csc2ccccc12 (stereo not shown) [Example J1, Methyl 5-acetyl-4-(benzo[b]thiophen-3-yl)-2-cyclopropyl-6-methyl-1,4-dihydropyridine-3-carboxylate]"
16,< 100 nM,"CCOC(=O)C1=C(C)NC(C)=C(C(C)=O)C1c1csc2ccccc12 (stereo not shown) [Example J2, Ethyl 5-acetyl-4-(benzo[b]thiophen-3-yl)-2,6-dimethyl-1,4-dihydropyridine-3-carboxylate]"
17,100 to 1000 nM,"COC(=O)C1=C(C)NC(C)=C(C(C)=O)C1c1csc2ccc(Cl)cc12 (stereo not shown) [Example J3, Methyl 5-acetyl-4-(5-chlorobenzo[b]thiophen-3-yl)-2,6-dimethyl-1,4-dihydropyridine-3-carboxylate]"
18,≥ 1000 nM,"CC(=O)C1=C(C)NC(C2CC2)=C(C(C)=O)C1c1csc2ccccc12 (stereo not shown) [Example J6, 1,1′-(4-(benzo[b]thiophen-3-yl)-2-cyclopropyl-6-methyl-1,4-dihydro-pyridine-3,5-diyl)diethanone]"
19,100 to 1000 nM,"CC(=O)C1=C(C)NC(C)=C(S(C)(=O)=O)C1c1csc2ccccc12 (stereo not shown) [Example J10, 1-(4-(benzo[b]thiophen-3-yl)-2,6-dimethyl-5-(methylsulfonyl)-1,4-dihydro-pyridin-3-yl)ethanone]"
20,< 100 nM,"COC(=O)C1=C(C)NC(C)=C(C(C)=O)C1c1csc2ccc(F)cc12 (stereo not shown) [Example J11, Methyl 5-acetyl-4-(5-fluorobenzo[b]thiophen-3-yl)-2,6-dimethyl-1,4-dihydropyridine-3-carboxylate]"
21,< 100 nM,"COC(=O)C1=C(C)NC(C)=C(C(C)=O)C1c1csc2ccc(Br)cc12 (stereo not shown) [Example J12, Methyl 5-acetyl-4-(5-bromobenzo[b]thiophen-3-yl)-2,6-dimethyl-1,4-dihydropyridine-3-carboxylate]"
